Like-named read-outs stand apart in the source and are kept apart here.

Consider one compound from article PMC7316994, “In Vitro Pharmacological Profile of a New Small Molecule Bradykinin B2 Receptor Antagonist” (Frontiers in Pharmacology, 2020).

Data set [1] has as its target T1, Opioid κ (KOP) (Rattus norvegicus, UniProt P34975).
T1 construct: host or cells: CHO cells
The data set can be described thus: radioligand binding (Table S2). The settings on record: [3H] U 69593, Rat recombinant CHO cells.

The target in data set [2] is Adrenergic α1A (Homo sapiens, UniProt P35348). As to the kind of experiment: radioligand binding (Table S2). The following applies: read-out: % Inhibition @ 10 µM.
The subject of data set [3] is Glutamate, NMDA, phencyclidine. As to the kind of experiment: radioligand binding (Table S2). The settings on record: [3H] TCP, Wistar rat cerebral cortex.
Data set [4] concerns the target T2, Histamine H4 (Homo sapiens, UniProt Q9H3N8).
T2 construct: host or cells: HEK-293 cells
The data set can be described thus: radioligand binding (Table S2). The following applies: [3H] Histamine, Human recombinant HEK-293 cells.

The target in data set [5] is Adenosine A1 (Homo sapiens, UniProt P30542). The data set can be described thus: radioligand binding (Table S2). The following applies: [3H] DPCPX, Human recombinant CHO cells.
The target in data set [6] is T3, Prostanoid CRTH2 (Homo sapiens, UniProt Q9Y5Y4).
T3 construct: host or cells: CHO-K1 cells
As to the kind of experiment: radioligand binding (Table S2). The settings on record: [3H] Prostaglandin D2, Human recombinant CHO-K1 cells.

In data set [7] the target is T4, Histamine H3 (Homo sapiens, UniProt Q9Y5N1).
T4 construct: host or cells: CHO cells
As to the kind of experiment: radioligand binding (Table S2). The following applies: [3H] Nα-Me-histamine, Human recombinant CHO cells.

Data set [8] deals with T5, B2 receptor (Homo sapiens, UniProt P30411).
T5 sequence (P30411 1-391): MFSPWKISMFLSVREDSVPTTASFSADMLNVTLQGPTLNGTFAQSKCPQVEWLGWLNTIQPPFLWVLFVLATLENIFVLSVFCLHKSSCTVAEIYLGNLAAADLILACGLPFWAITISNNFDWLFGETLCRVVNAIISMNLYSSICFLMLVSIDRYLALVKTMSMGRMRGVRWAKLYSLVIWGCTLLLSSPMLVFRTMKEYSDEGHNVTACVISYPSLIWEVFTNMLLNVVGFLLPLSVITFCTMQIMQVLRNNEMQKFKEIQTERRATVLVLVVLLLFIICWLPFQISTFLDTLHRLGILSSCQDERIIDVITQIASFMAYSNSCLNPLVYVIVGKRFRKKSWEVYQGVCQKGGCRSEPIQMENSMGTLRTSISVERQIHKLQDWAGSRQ
As to the kind of experiment: Ca^2+ mobilization assay, transfected CHO cells. Also on record: host or cells: CHO cells. The following applies: inhibition of response to 0.03 nM BK. It counts as cell-based.

The target in data set [9] is T6, human myc-B2 receptor (Homo sapiens, UniProt P30411).
T6 construct: expressed in transfected cells
T6 sequence (P30411 1-391): T5 sequence (P30411 1-391)
The data set can be described thus: c-Fos immunoblot, HEK 293a cells stably expressing myc-B2 receptor. It counts as cell-based. The following applies: BK 10 nM. The source says: Supplementary Methods: Immunoblots for c-Fos signaling
The construction of myc-tagged B2 receptor expression vector containing the human receptor sequence has been recently reported, as well as the derivation of HEK293a cell lines that stably express the construction (Charest-Morin et al., 2015). Immunoblotting experiments, conducted as described (Koumbadinga et al., 2010), were used to study the effect of selected antagonists on BK-induced signaling. Briefly, HEK 293a cells stably expressing the human myc-B2 receptor were stimulated with BK agonists for 60 min at 37°C, with or without a pretreatment with the antagonist (applied 15 min before BK). Total cell extracts were immunoblotted to detect c-Fos expression using the K-25 rabbit polyclonal antibodies (Santa Cruz Biotechnology, Dallas, TX; dilution 1:50,000). In these experiments, β-actin was used as a loading control and was detected using the monoclonal anti-β-actin antibody, clone AC-15 (Sigma-Aldrich; dilution 1:50,000).
A general note: Immunoblotting shows a protein as a band on a membrane.

Data set [10] deals with T7, Serotonin 5-HT4 e (Homo sapiens, UniProt Q13639).
T7 construct: host or cells: CHO cells
As to the kind of experiment: radioligand binding (Table S2). The following applies: [3H] GR 113808, Human recombinant CHO cells.

The test system of data set [11] is panel of G protein-coupled receptors (GPCRs), ion channels, enzymes and transporters.
Data set [12] concerns the target Neurokinin NK1 (Homo sapiens, UniProt P25103). In kind it is cell-based.
Data set [13] can be described thus: in vitro. The settings on record: male, Wistar, rat, microsomes, pH 7.4.
The target in data set [14] is Somatostatin sst2 (Homo sapiens, UniProt P30874). The data set can be described thus: radioligand binding (Table S2). The settings on record: [125I] Tyr11-Somatostatin 14, Human recombinant CHO-K1 cells.
For data set [15], the target named is T8, Thyrotropin-releasing hormone TRH1 (Homo sapiens, UniProt P34981).
T8 construct: host or cells: CHO cells
As to the kind of experiment: radioligand binding (Table S2). The following applies: [3H] Me-TRH, Human recombinant CHO cells.

Sequence of Neurokinin NK1 (P25103 whole entry): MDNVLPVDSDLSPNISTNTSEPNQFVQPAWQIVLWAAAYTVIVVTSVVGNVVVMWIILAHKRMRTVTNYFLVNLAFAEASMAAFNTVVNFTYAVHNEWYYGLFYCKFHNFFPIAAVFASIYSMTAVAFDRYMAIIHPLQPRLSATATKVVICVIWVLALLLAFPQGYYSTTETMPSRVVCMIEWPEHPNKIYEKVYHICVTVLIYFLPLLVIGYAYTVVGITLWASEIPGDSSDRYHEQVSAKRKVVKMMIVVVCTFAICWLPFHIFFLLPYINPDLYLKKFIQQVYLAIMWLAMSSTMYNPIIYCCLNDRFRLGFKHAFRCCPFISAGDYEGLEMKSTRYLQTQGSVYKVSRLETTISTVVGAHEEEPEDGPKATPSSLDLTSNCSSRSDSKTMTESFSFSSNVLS
T7 sequence (Q13639 1-378 isoform Q13639-5): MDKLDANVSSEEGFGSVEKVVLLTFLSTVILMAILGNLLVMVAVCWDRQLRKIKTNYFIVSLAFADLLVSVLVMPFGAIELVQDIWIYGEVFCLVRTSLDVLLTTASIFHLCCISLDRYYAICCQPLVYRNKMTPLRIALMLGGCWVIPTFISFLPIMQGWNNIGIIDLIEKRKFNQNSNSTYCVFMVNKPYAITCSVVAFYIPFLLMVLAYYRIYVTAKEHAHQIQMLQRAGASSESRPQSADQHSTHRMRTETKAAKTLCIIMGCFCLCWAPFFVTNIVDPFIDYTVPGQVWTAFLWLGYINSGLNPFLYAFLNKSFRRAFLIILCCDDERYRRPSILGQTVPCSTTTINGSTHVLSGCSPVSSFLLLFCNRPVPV
T2 sequence (Q9H3N8 whole entry): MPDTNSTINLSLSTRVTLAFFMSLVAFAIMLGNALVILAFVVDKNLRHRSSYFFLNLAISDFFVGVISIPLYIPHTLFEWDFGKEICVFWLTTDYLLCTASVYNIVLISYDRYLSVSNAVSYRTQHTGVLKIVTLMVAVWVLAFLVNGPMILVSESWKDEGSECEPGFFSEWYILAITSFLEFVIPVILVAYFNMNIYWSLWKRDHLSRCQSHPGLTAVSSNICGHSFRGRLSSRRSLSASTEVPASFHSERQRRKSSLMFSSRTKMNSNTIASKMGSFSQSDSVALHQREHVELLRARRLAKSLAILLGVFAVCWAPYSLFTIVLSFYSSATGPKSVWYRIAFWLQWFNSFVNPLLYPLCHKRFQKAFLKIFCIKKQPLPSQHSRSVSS
T4 sequence (Q9Y5N1 whole entry): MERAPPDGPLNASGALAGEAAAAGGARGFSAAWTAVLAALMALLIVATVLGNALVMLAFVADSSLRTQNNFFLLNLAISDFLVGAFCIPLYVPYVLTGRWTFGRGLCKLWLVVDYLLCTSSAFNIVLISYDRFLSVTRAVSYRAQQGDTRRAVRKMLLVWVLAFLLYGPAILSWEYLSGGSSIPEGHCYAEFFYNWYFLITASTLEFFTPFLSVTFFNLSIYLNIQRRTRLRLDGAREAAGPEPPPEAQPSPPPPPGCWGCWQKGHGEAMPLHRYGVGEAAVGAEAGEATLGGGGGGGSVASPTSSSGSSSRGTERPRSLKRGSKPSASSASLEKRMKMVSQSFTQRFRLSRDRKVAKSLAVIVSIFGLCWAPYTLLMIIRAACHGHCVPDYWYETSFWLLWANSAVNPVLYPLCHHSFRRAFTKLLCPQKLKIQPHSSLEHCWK
T1 sequence (P34975 whole entry): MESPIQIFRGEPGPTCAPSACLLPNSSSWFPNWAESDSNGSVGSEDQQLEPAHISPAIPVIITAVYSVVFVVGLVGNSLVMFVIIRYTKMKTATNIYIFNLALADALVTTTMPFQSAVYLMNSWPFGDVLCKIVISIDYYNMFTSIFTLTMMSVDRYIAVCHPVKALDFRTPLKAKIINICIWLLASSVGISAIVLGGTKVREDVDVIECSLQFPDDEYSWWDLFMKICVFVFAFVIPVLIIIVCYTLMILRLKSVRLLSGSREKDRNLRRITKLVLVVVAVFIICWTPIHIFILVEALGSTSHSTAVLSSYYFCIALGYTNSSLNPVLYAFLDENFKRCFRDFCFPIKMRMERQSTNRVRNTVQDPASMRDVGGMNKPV
Sequence of Adenosine A1 (P30542 whole entry): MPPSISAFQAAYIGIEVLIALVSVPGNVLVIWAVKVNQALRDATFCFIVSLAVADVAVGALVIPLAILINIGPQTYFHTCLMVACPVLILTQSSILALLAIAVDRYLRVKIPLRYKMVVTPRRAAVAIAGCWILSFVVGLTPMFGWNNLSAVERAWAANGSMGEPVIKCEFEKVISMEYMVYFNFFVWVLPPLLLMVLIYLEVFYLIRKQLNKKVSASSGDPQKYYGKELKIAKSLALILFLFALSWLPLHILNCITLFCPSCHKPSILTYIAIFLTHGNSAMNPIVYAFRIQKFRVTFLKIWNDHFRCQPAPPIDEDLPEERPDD
Sequence of Somatostatin sst2 (P30874 whole entry): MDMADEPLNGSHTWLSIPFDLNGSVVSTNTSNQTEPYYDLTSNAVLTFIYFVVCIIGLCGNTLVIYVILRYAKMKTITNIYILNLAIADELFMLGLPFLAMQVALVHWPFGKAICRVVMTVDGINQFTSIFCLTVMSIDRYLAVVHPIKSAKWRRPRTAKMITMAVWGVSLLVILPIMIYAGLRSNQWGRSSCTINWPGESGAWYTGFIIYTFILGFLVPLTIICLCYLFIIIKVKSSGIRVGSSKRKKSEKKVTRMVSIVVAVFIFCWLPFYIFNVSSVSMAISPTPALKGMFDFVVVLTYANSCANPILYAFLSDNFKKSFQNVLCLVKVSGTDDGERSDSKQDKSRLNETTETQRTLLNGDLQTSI
T3 sequence (Q9Y5Y4 whole entry): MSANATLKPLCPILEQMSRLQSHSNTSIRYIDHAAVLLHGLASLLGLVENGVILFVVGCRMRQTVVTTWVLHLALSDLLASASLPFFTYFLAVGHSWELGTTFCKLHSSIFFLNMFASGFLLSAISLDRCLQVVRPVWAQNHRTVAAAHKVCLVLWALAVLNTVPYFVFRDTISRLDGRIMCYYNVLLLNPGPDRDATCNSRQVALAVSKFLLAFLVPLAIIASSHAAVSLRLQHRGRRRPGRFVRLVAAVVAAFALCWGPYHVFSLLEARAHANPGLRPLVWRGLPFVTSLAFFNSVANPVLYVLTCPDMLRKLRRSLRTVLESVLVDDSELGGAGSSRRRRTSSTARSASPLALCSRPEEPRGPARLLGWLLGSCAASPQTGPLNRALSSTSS
Sequence of Adrenergic α1A (P35348 whole entry): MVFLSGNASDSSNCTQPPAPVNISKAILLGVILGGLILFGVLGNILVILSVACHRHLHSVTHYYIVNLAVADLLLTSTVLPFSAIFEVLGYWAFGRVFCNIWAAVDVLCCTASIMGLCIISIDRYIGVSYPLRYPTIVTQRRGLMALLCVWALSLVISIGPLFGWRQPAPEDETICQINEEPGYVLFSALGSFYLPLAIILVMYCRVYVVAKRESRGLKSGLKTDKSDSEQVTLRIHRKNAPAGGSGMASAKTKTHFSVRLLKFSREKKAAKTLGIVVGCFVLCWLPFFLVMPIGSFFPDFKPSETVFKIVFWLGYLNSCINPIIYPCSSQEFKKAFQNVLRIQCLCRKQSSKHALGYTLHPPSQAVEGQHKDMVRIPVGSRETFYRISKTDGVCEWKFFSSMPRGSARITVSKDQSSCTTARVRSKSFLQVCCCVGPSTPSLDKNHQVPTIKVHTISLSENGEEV
T8 sequence (P34981 whole entry): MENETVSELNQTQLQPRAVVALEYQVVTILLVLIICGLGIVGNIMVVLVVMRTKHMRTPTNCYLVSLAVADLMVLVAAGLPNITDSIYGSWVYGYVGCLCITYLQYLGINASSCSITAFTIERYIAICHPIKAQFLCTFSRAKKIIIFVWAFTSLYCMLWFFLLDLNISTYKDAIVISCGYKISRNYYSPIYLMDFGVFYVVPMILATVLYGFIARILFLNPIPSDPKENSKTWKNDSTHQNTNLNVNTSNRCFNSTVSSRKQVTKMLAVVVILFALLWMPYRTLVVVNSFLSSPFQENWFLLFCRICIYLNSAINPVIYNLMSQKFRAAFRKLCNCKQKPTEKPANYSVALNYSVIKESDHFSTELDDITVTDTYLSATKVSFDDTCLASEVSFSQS

By inhibition is commonly meant the change of the read-out against control, counted positive when it falls. Usually IC50 stands for the point on the concentration scale where inhibition reaches its midpoint. As usually defined, the microsomal CLint is the capacity of the preparation to metabolise the compound, expressed as a volume cleared per time. Read a high microsomal CLint as faster metabolism. For `Cc1cc(-c2ncnn2C)c2cccc(OCc3c(Cl)cc(F)cc3[C@H](C)NC(=O)COC(F)F)c2n1` [Compound 3, (S)-N-(1-(3-chloro-5-fluoro-2-((2-methyl-4-(1-methyl-1H-1,2,4-triazol-5-yl)quinolin-8-yloxy)methyl)phenyl)ethyl)-2-(difluoromethoxy)acetamide], the inhibition at 10 µM in data set [1] is 15.4%; in data set [2], 13.3%; in [4], -2.8%; in [5] it was 12.4%; in data set [6] it was 3%; in data set [7] it was 6.2%. Also, the inhibition at 10 µM in [10] was -0.9%; in data set [14], -7%; in data set [15], 21.7%. Besides, in [3], the “% Inhibition @ 10 µM” value was -2%. In addition, the IC50 in data set [8] (arithmetic mean, read-out: IC50 (nM) Mean) turned out to be 2.13 nM; in data set [8] (geometric mean, read-out: IC50 (nM) Geometric mean) it was 2.13 nM; in data set [12] ([Sar9,Met(O2)11]-SP (1 nM), read-out: IC50 (µM), functional antagonism) it was 17 µM. Moreover, the Kb in data set [8] (arithmetic mean, read-out: Kb (nM) Mean) is 0.24 nM; in data set [8] (geometric mean, read-out: Kb (nM) Geometric mean) it was 0.24 nM; in data set [12] ([Sar9,Met(O2)11]-SP (1 nM), read-out: Kb (µM), functional antagonism), 2.4 µM. Also, in data set [9] (60 min), the “antagonist concentration that significantly reduced the c-Fos response to BK” value is “significant effect at equimolar concentration”. In [9] (co-treatment between 10 nM and 1 μM), the “effect on BK-induced c-Fos accumulation” value is on record as “inhibited this response in a concentration-dependent manner”. The “inhibition of binding or functional activity at most targets” value in data set [11] (10 μM, most targets incl. bradykinin B1 and angiotensin AT1, except V1a, CRF1, EP1, TP, NK1) is on record as under 50%. Besides, in data set [11] (full concentration-response curves, agonist mode), the “agonism at V1a, CRF1, TP, NK1, NK3” value is on record as “no agonism”. In addition, the “% of reference agonist response @ 10 µM (agonist effect)” value in data set [12] (10 µM, reference [Sar9,Met(O2)11]-SP (30 nM)) is reported as -5.2%. In data set [13], this compound came in with a microsomal CLint at 1 µM of 27.9 µL/min/mg.
